Test results as given in patent publication US9127038B2, “Kisspeptide-pentasaccharide conjugates” (Merck Sharp & Dohme Corp., priority 2011, dated 2015).
Read-outs that look alike come from different tables or passages of the source.

Molecular target: T1, human KISS-receptor (Homo sapiens, UniProt Q969F8)
T1 construct: expressed in transfected cells; host or cells: CHO-k1 cells that also express mitochondrially targeted aequorin, Gα16 and an NFAT-luciferase reporter
Experiment: NFAT-regulated luciferase reporter gene assay in CHO-k1 cells, agonist activity
Type: cell-based

[1] = pEC50 serum, presence of 20% human serum
[2] = absence of human serum, read-out: pEC50 (converted)
[3] = presence of 20% human serum, read-out: pEC50 serum (converted)

T1 sequence (Q969F8 whole entry): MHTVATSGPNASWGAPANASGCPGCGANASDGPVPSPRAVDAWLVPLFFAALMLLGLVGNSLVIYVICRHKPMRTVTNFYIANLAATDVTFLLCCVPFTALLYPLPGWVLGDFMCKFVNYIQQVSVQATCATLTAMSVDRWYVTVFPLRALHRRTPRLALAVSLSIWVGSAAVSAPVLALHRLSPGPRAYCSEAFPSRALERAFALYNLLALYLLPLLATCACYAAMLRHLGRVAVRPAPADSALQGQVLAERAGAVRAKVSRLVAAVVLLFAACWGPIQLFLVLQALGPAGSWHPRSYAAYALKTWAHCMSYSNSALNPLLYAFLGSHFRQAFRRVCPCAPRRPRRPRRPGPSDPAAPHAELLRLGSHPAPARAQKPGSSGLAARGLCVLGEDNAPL

| Structure (SMILES) | EC50 (pEC50, absence of human serum) [pM] | EC50 [1] [pM] | EC50 [2] [pM] | EC50 [3] [pM] |
| --- | --- | --- | --- | --- |
| CNC(=N)NCCC[C@H](NC(=O)[C@H](CC(C)C)NC(=O)NNC(=O)[C@H](Cc1ccccc1)NC(=O)[C@@H](NC(=O)[C@H](CC(N)=O)NC(=O)[C@H](Cc1c[nH]c2ccccc12)NC(=O)[C@H](CC(N)=O)NC(=O)[C@@H](Cc1ccc(O)cc1)NC(=O)CSCCC(=O)NCCOCCOCCOCCO[C@H]1[C@H](OC)[C@@H](OC)[C@@H](O[C@H]2[C@H](OC)[C@@H](OC)[C@H](O[C@H]3[C@H](OS(=O)(=O)O)[C@@H](OS(=O)(=O)O)[C@@H](O[C@H]4[C@H](OC)[C@@H](OC)[C@H](O[C@H]5[C@H](OS(=O)(=O)O)[C@@H](OS(=O)(=O)O)[C@@H](OC)O[C@@H]5COS(=O)(=O)O)O[C@H]4C(=O)O)O[C@@H]3COS(=O)(=O)O)O[C@@H]2C(=O)O)O[C@@H]1COS(=O)(=O)O)[C@@H](C)O)C(=O)N[C@@H](Cc1ccccc1)C(N)=O [Conjugate C2] | 77.6 | 9120 | – | – |
| CNC(=N)NCCC[C@H](NC(=O)[C@H](CC(C)C)NC(=O)NNC(=O)[C@H](Cc1ccccc1)NC(=O)[C@@H](NC(=O)[C@H](CC(N)=O)NC(=O)[C@H](Cc1c[nH]c2ccccc12)NC(=O)[C@H](CC(N)=O)NC(=O)[C@@H](Cc1ccc(O)cc1)Nc1c(NCCOCCOCCOCCOCC(=O)NCCOCCOCCOCCO[C@H]2[C@H](OC)[C@@H](OC)[C@@H](O[C@H]3[C@H](OC)[C@@H](OC)[C@H](O[C@H]4[C@H](OS(=O)(=O)O)[C@@H](OS(=O)(=O)O)[C@@H](O[C@H]5[C@H](OC)[C@@H](OC)[C@H](O[C@H]6[C@H](OS(=O)(=O)O)[C@@H](OS(=O)(=O)O)[C@@H](OC)O[C@@H]6COS(=O)(=O)O)O[C@H]5C(=O)O)O[C@@H]4COS(=O)(=O)O)O[C@@H]3C(=O)O)O[C@@H]2COS(=O)(=O)O)c(=O)c1=O)[C@@H](C)O)C(=O)N[C@@H](Cc1ccccc1)C(N)=O [Conjugate C3] | – | – | 77.6 | 6310 |
| CNC(=N)NCCC[C@H](NC(=O)[C@H](CC(C)C)NC(=O)NNC(=O)[C@H](Cc1ccccc1)NC(=O)[C@@H](NC(=O)[C@H](CC(N)=O)NC(=O)[C@H](Cc1c[nH]c2ccccc12)NC(=O)[C@H](CC(N)=O)NC(=O)[C@@H](Cc1ccc(O)cc1)NC(=O)CCCCn1cc(CCC(=O)NCCOCCOCCOCCOCC(=O)NCCOCCOCCOCCO[C@H]2[C@H](OC)[C@@H](OC)[C@@H](O[C@H]3[C@H](OC)[C@@H](OC)[C@H](O[C@H]4[C@H](OS(=O)(=O)O)[C@@H](OS(=O)(=O)O)[C@@H](O[C@H]5[C@H](OC)[C@@H](OC)[C@H](O[C@H]6[C@H](OS(=O)(=O)O)[C@@H](OS(=O)(=O)O)[C@@H](OC)O[C@@H]6COS(=O)(=O)O)O[C@H]5C(=O)O)O[C@@H]4COS(=O)(=O)O)O[C@@H]3C(=O)O)O[C@@H]2COS(=O)(=O)O)nn1)[C@@H](C)O)C(=O)N[C@@H](Cc1ccccc1)C(N)=O [Conjugate C6] | 148 | 5620 | – | – |
| CNC(=N)NCCC[C@H](NC(=O)[C@H](CC(C)C)NC(=O)NNC(=O)[C@H](Cc1ccccc1)NC(=O)[C@@H](NC(=O)[C@H](CC(N)=O)NC(=O)[C@H](Cc1c[nH]c2ccccc12)NC(=O)[C@H](CC(N)=O)NC(=O)[C@H](Cc1ccc(O)cc1)NC(=O)COCCOCCOCCOCCn1cc(CCC(=O)NCCOCCOCCOCCO[C@H]2[C@H](OC)[C@@H](OC)[C@@H](O[C@H]3[C@H](OC)[C@@H](OC)[C@H](O[C@H]4[C@H](OS(=O)(=O)O)[C@@H](OS(=O)(=O)O)[C@@H](O[C@H]5[C@H](OC)[C@@H](OC)[C@H](O[C@H]6[C@H](OS(=O)(=O)O)[C@@H](OS(=O)(=O)O)[C@@H](OC)O[C@@H]6COS(=O)(=O)O)O[C@H]5C(=O)O)O[C@@H]4COS(=O)(=O)O)O[C@@H]3C(=O)O)O[C@@H]2COS(=O)(=O)O)nn1)[C@@H](C)O)C(=O)N[C@@H](Cc1ccccc1)C(N)=O [Conjugate C23] | – | – | 209 | 2450 |
| CNC(=N)NCCC[C@H](NC(=O)[C@H](CC(C)C)NC(=O)CNC(=O)[C@H](Cc1ccccc1)NC(=O)[C@@H](NC(=O)[C@H](CC(N)=O)NC(=O)[C@H](CCCCNC(=O)CCOCCOCCOCCOCCn1cc(CCC(=O)NCCOCCOCCOCCO[C@H]2[C@H](OC)[C@@H](OC)[C@@H](O[C@H]3[C@H](OC)[C@@H](OC)[C@H](O[C@H]4[C@H](OS(=O)(=O)O)[C@@H](OS(=O)(=O)O)[C@@H](O[C@H]5[C@H](OC)[C@@H](OC)[C@H](O[C@H]6[C@H](OS(=O)(=O)O)[C@@H](OS(=O)(=O)O)[C@@H](OC)O[C@@H]6COS(=O)(=O)O)O[C@H]5C(=O)O)O[C@@H]4COS(=O)(=O)O)O[C@@H]3C(=O)O)O[C@@H]2COS(=O)(=O)O)nn1)NC(=O)[C@H](CC(N)=O)NC(=O)[C@@H](N)Cc1ccc(O)cc1)[C@@H](C)O)C(=O)N[C@@H](Cc1ccccc1)C(N)=O [Conjugate C28] | 141 | 4270 | – | – |
| CNC(=N)NCCC[C@H](NC(=O)[C@H](CC(C)C)NC(=O)CNC(=O)[C@H](Cc1ccccc1)NC(=O)[C@@H](NC(=O)[C@H](CC(N)=O)NC(=O)[C@H](Cc1ccccc1)NC(=O)[C@H](CC(N)=O)NC(=O)[C@H](Cc1ccc(O)cc1)NC(=O)CCCCn1cc(CCC(=O)NCCOCCOCCOCCO[C@H]2[C@H](OC)[C@@H](OC)[C@@H](O[C@H]3[C@H](OC)[C@@H](OC)[C@H](O[C@H]4[C@H](OS(=O)(=O)O)[C@@H](OS(=O)(=O)O)[C@@H](O[C@H]5[C@H](OC)[C@@H](OC)[C@H](O[C@H]6[C@H](OS(=O)(=O)O)[C@@H](OS(=O)(=O)O)[C@@H](OC)O[C@@H]6COS(=O)(=O)O)O[C@H]5C(=O)O)O[C@@H]4COS(=O)(=O)O)O[C@@H]3C(=O)O)O[C@@H]2COS(=O)(=O)O)nn1)[C@@H](C)O)C(=O)N[C@@H](Cc1ccccc1)C(N)=O [Conjugate C29] | – | – | 407 | 8130 |
| CNC(=N)NCCC[C@H](NC(=O)[C@H](CC(C)C)NC(=O)NNC(=O)[C@H](Cc1ccccc1)NC(=O)[C@@H](NC(=O)[C@H](CC(N)=O)NC(=O)[C@@H]1C[C@@H](O)CN1C(=O)[C@@H](Cc1ccc(O)cc1)NC(=O)CCCCn1cc(CCC(=O)NCCOCCOCCOCCO[C@H]2[C@H](OC)[C@@H](OC)[C@@H](O[C@H]3[C@H](OC)[C@@H](OC)[C@H](O[C@H]4[C@H](OS(=O)(=O)O)[C@@H](OS(=O)(=O)O)[C@@H](O[C@H]5[C@H](OC)[C@@H](OC)[C@H](O[C@H]6[C@H](OC)[C@@H](OS(=O)(=O)O)[C@@H](OC)O[C@@H]6COS(=O)(=O)O)O[C@H]5C(=O)O)O[C@@H]4COS(=O)(=O)O)O[C@@H]3C(=O)O)O[C@@H]2COS(=O)(=O)O)nn1)[C@@H](C)O)C(=O)N[C@@H](Cc1c[nH]c2ccccc12)C(N)=O [Conjugate C30] | 47.9 | 195 | – | – |
| CNC(=N)NCCC[C@H](NC(=O)[C@H](CC(C)C)NC(=O)NNC(=O)[C@H](Cc1ccccc1)NC(=O)[C@@H](NC(=O)[C@H](CC(N)=O)NC(=O)[C@@H]1C[C@@H](O)CN1C(=O)[C@@H](Cc1ccc(O)cc1)NC(=O)CCOCCOCCOCCOCCn1cc(CCC(=O)NCCOCCOCCOCCOCC(=O)NCCOCCOCCOCCO[C@H]2[C@H](OC)[C@@H](OC)[C@@H](O[C@H]3[C@H](OC)[C@@H](OC)[C@H](O[C@H]4[C@H](OS(=O)(=O)O)[C@@H](OS(=O)(=O)O)[C@@H](O[C@H]5[C@H](OC)[C@@H](OC)[C@H](O[C@H]6[C@H](OC)[C@@H](OS(=O)(=O)O)[C@@H](OC)O[C@@H]6COS(=O)(=O)O)O[C@H]5C(=O)O)O[C@@H]4COS(=O)(=O)O)O[C@@H]3C(=O)O)O[C@@H]2COS(=O)(=O)O)nn1)[C@@H](C)O)C(=O)N[C@@H](Cc1c[nH]c2ccccc12)C(N)=O [Conjugate C32] | – | – | 151 | 355 |
| CNC(=N)NCCC[C@H](NC(=O)[C@H](CC(C)C)NC(=O)NNC(=O)[C@H](Cc1ccccc1)NC(=O)[C@@H](NC(=O)[C@H](CC(N)=O)NC(=O)[C@@H]1C[C@@H](O)CN1C(=O)[C@@H](Cc1ccc(O)cc1)NC(=O)CCOCCOCCOCCOCCn1cc(CCC(=O)NCCOCCOCCOCCOCC(=O)NCCOCCOCCOCCO[C@H]2[C@H](OC)[C@@H](OC)[C@@H](O[C@H]3[C@H](OC)[C@@H](OC)[C@H](O[C@H]4[C@H](OS(=O)(=O)O)[C@@H](OS(=O)(=O)O)[C@@H](O[C@H]5[C@H](OC)[C@@H](OC)[C@H](O[C@H]6[C@H](OS(=O)(=O)O)[C@@H](OS(=O)(=O)O)[C@@H](OC)O[C@@H]6COS(=O)(=O)O)O[C@H]5C(=O)O)O[C@@H]4COS(=O)(=O)O)O[C@@H]3C(=O)O)O[C@@H]2COS(=O)(=O)O)nn1)[C@@H](C)O)C(=O)N[C@@H](Cc1c[nH]c2ccccc12)C(N)=O [Conjugate C33] | – | – | 58.9 | 912 |
| CO[C@H]1O[C@H](COS(=O)(=O)O)[C@@H](O[C@@H]2O[C@@H](C(=O)O)[C@@H](O[C@H]3O[C@H](COS(=O)(=O)O)[C@@H](O[C@@H]4O[C@H](C(=O)O)[C@@H](O[C@H]5O[C@H](COS(=O)(=O)O)[C@@H](OCCOCCOCCOCCNC(=O)CCc6cn(CCCCC(=O)N[C@H](Cc7ccc(O)cc7)C(=O)N7C[C@H](O)C[C@H]7C(=O)N[C@@H](CC(N)=O)C(=O)N[C@H](C(=O)N[C@@H](Cc7ccccc7)C(=O)NNC(=O)N[C@@H](CC(C)C)C(=O)N[C@@H](CCCNC(=N)N)C(=O)N[C@@H](Cc7c[nH]c8ccccc78)C(N)=O)[C@@H](C)O)nn6)[C@H](OC)[C@H]5OC)[C@H](OC)[C@H]4OC)[C@H](OS(=O)(=O)O)[C@H]3OS(=O)(=O)O)[C@H](OC)[C@H]2OC)[C@H](OC)[C@H]1OS(=O)(=O)O [Conjugate C36] | – | – | 12.6 | 91.2 |
| CO[C@H]1O[C@H](COS(=O)(=O)O)[C@@H](O[C@@H]2O[C@@H](C(=O)O)[C@@H](O[C@H]3O[C@H](COS(=O)(=O)O)[C@@H](O[C@@H]4O[C@H](C(=O)O)[C@@H](O[C@H]5O[C@H](COS(=O)(=O)O)[C@@H](OCCOCCOCCOCCNC(=O)CCc6cn(CCCCC(=O)N[C@H](Cc7ccc(O)cc7)C(=O)N7C[C@H](O)C[C@H]7C(=O)N[C@@H](CC(N)=O)C(=O)N[C@H](C(=O)N[C@@H](Cc7ccccc7)C(=O)NNC(=O)N[C@@H](CC(C)C)C(=O)N[C@@H](CCCNC(=N)N)C(=O)N[C@@H](Cc7c[nH]c8ccccc78)C(N)=O)[C@@H](C)O)nn6)[C@H](OC)[C@H]5OC)[C@H](OC)[C@H]4OC)[C@H](OS(=O)(=O)O)[C@H]3OS(=O)(=O)O)[C@H](OC)[C@H]2OC)[C@H](OS(=O)(=O)O)[C@H]1OS(=O)(=O)O [Conjugate C37] | – | – | 12.6 | 1150 |
